Values of other authors in patent publication US20260033492A1, “Pest Repellents and Uses Thereof” (priority 2020, published 2026).

What was measured:
acetylcholinesterase = acetylcholinesterase (Homo sapiens, UniProt P22303); conditions: in humans
[1] = in vivo
salamander larvae = conditions: in vivo
insects = conditions: in vivo

Chain of acetylcholinesterase (P22303 32-614): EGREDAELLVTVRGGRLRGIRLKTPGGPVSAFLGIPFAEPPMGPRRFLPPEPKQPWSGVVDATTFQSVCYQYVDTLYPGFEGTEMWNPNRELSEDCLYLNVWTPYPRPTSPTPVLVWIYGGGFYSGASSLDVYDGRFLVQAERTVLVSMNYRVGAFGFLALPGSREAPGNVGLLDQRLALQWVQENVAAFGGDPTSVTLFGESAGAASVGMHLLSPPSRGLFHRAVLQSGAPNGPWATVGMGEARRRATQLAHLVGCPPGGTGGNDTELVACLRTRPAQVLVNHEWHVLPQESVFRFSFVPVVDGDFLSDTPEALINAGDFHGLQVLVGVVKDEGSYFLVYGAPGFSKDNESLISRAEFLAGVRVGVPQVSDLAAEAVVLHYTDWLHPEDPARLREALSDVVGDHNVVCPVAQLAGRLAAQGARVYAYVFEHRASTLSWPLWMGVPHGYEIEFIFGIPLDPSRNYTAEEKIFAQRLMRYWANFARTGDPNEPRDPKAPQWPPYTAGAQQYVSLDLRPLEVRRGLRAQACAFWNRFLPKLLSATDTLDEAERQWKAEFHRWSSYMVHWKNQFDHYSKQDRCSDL

## CCN(CC)C(=O)c1cccc(C)c1 [DEET, N,N-diethyl-meta-toluamide]
acetylcholinesterase
  inhibition of acetylcholinesterase: inhibit acetylcholinesterase
[1]
  irritancy / skin reactions: act as an irritant

## CCC(C)OC(=O)N1CCCCC1CCO (stereo not shown) [Icaridin]
Salamander larvae
  toxicity to salamander larvae: toxic to salamander larvae
insects
  effectiveness at repelling insects relative to DEET: as effective as DEET
